The target in one test is VIM-1 (Pseudomonas aeruginosa (strain ATCC 15692 / DSM 22644 / CIP 104116 / JCM 14847 / LMG 12228 / 1C / PRS 101 / PAO1), UniProt A0A0F7KYQ8). Put plainly: Enzyme activity: determination of IC50, fluorescence assay with CCF2-FA substrate (VIM-1). Type of test: biochemical.
A further test concerns the target NDM-1 (Klebsiella pneumoniae, UniProt C7C422). Briefly: biochemical. Type of test: biochemical. The note with it: read-out: NDM-1 IC50.
Another test concerns the target IMP-1 (Serratia marcescens, UniProt P52699). Put plainly: biochemical. To be noted: read-out: IMP-1 IC50. Type of test: biochemical.
In test [1] the test system is Escherichia coli expressing NDM-1 (CLB30016). Briefly: Antibiotic potentiation activity: synergistic concentration (MITC95) with imipenem, OD600 growth. Type of test: cell-based. The method, boiled down: (§1)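 Overnight colonies (35 °C) were suspended in saline, diluted 1:100 into 1.1× CAMHB, and exposed to test compound with imipenem at 4 μg/ml (optionally 1 μg/ml) in assay. After 22–24 h at 35 °C, growth was read by absorbance.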

Test [2] relates to Serratia marcescens expressing IMP-1 (CL5741). The test is described as above. Type of test: cell-based. The method, boiled down:
as §1

Test [3] deals with Klebsiella pneumoniae expressing VIM-1 (IHMA599644). Described as above. Type of test: cell-based. A digest of the protocol: as §1
Setting [4] is: VIM-1 enzyme, CCF2-FA substrate, read-out: VIM-1 IC50.
Where [5] appears, read: NDM-1 enzyme, CCF2-FA substrate.
The mark [6] stands for this setting: IMP-1 enzyme, CCF2-FA substrate.
Where [7] appears, read: (CLB30016, NDM-1), 95% growth inhibition.
Setting [8] is: Serratia marcescens CL5741 (IMP-1), 95% growth inhibition.
[9] abbreviates: Klebsiella pneumoniae IHMA599644 (VIM-1), 95% growth inhibition.
Where [10] appears, read: VIM-1 IC50, VIM-1 enzyme, CCF2-FA substrate.
The mark [11] stands for this setting: fluorescence assay with CCF2-FA substrate, read-out: VIM-1 IC50.
Setting [12] is: fluorescence assay with CCF2-FA substrate.
[13] abbreviates: CLB30016 (NDM-1), 95% inhibition of bacterial growth.
Where [14] appears, read: CL5741 (IMP-1), 95% inhibition of bacterial growth.
[15] abbreviates: IHMA599644 (VIM-1), 95% inhibition of bacterial growth.
Setting [16] is: VIM-1 IC50, fluorescence assay with CCF2-FA substrate.

Read-outs that look alike come from different tables or passages of the source. Where only a bound is given, the exact number is not on record here.

Sequence of IMP-1 (P52699 whole entry, looked up): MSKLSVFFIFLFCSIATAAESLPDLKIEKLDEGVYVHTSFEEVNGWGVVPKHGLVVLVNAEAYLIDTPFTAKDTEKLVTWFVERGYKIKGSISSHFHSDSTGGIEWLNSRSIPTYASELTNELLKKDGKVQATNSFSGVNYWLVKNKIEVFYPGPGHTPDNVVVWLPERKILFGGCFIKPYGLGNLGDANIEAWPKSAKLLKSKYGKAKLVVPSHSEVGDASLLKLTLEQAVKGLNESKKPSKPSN
Sequence of NDM-1 (C7C422 whole entry, looked up, species assumed): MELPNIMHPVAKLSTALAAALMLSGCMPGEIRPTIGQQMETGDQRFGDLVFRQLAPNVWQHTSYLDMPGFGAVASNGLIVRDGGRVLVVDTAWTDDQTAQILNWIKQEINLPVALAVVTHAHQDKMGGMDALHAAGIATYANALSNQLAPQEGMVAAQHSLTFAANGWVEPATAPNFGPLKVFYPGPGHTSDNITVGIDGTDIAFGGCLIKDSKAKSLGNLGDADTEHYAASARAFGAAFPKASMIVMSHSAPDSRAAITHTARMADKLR

Regarding `Nc1nc(-c2ccc(-c3ccc(C(F)(F)F)c(S(N)(=O)=O)c3-c3nnn[nH]3)cc2)cs1` [Example 732, 4′-(2-amino-1,3-thiaozl-4-yl)-2-(1H-tetrazol-5-yl)-4-(trifluoromethyl)biphenyl-3-sulfonamide], the IC50 – broadly, the point on the concentration scale where inhibition reaches its midpoint – at VIM-1 (setting [4]) is 0.69 nM; on NDM-1 (setting [5]), 0.534 nM; at IMP-1 (setting [6]), 0.384 nM. In test [1] (setting [7]), the “Escherichia coli MITC95” value is 0.7813 µM. Moreover, the “Serratia marcescens MITC95” value in test [2] (setting [8]) is 3.125 µM. The “Klebsiella pneumoniae MITC95” value in test [3] (setting [9]) turned out to be 25 µM.
Take `NCC1COc2ccc(-c3ccc(C(F)(F)F)c(S(N)(=O)=O)c3-c3nnn[nH]3)cc21` (stereo not drawn) [Example 733, 3-[3-(aminomethyl)-2,3-dihydro-1-benzofuran-5-yl]-2-(1H-tetrazol-5-yl)-6-(trifluoromethyl)benzenesulfon-amide]: the half-inhibitory concentration (IC50) at VIM-1 (setting [4]) was determined as 1.47 nM; at NDM-1 (setting [5]) it was 33.5 nM; at IMP-1 (setting [6]), 34.3 nM. Besides, the “Escherichia coli MITC95” value in test [1] (setting [7]) worked out at 12.5 µM. Besides, the “Serratia marcescens MITC95” value in test [2] (setting [8]) was 25 µM. For the same compound, the “Klebsiella pneumoniae MITC95” value in test [3] (setting [9]) came to 6.25 µM.
In the case of `NCCc1cccc(-c2ccc(C(F)(F)F)c(S(N)(=O)=O)c2-c2nnn[nH]2)c1` [Example 734, 3′-(2-aminoethyl)-2-(1H-tetraozl-5-yl)-4-(trifluoromethyl)biphenyl-3-sulfonamide], the values for the IC50 at VIM-1 (setting [4]), on NDM-1 (setting [5]) and at IMP-1 (setting [6]) were 3.27 nM, 31.4 nM and 34.4 nM, respectively. Moreover, the “Escherichia coli MITC95” value in test [1] (setting [7]) was determined as 12.5 µM. Further, the “Serratia marcescens MITC95” value in test [2] (setting [8]) worked out at 25 µM. Moreover, in test [3] (setting [9]), the “Klebsiella pneumoniae MITC95” value worked out at 12.5 µM.
For `NCCCc1ccc(-c2ccc(C(F)(F)F)c(S(N)(=O)=O)c2-c2nnn[nH]2)cc1` [Example 735, 4′-(3-aminopropyl)-2-(1H-tetrazol-5-yl)-4-(trifluoromethyl)biphenyl-3-sulfonamide], the results for the half-maximal inhibitory concentration (IC50) at VIM-1 (setting [4]), at NDM-1 (setting [5]) and on IMP-1 (setting [6]) were 0.388 nM, 3.03 nM and 1.7 nM, respectively. In test [1] (setting [7]), the “Escherichia coli MITC95” value is 3.125 µM. Further, in test [2] (setting [8]), the “Serratia marcescens MITC95” value is 3.125 µM. Moreover, the “Klebsiella pneumoniae MITC95” value in test [3] (setting [9]) was found to be 6.25 µM.
`NCCS(=O)(=O)c1ccc(-c2ccc(C(F)(F)F)c(S(N)(=O)=O)c2-c2nnn[nH]2)cc1` [Example 736, 4′-[(2-aminoethyl)sulfonyl]-2-(1H-tetrazol-5-yl)-4-(trifluoromethyl)biphenyl-3-sulfonamide]: the IC50 is 1.59 nM on VIM-1 (setting [4]), 3.23 nM at NDM-1 (setting [5]) and 3.23 nM at IMP-1 (setting [6]). Moreover, the “Escherichia coli MITC95” value in test [1] (setting [7]) is 6.25 µM. Further, the “Serratia marcescens MITC95” value in test [2] (setting [8]) is 6.25 µM. For the same compound, the “Klebsiella pneumoniae MITC95” value in test [3] (setting [9]) stood at 6.25 µM.
In the case of `NS(=O)(=O)Cc1cccc(-c2ccc(C(F)(F)F)c(S(N)(=O)=O)c2-c2nnn[nH]2)c1` [Example 737, 3′-(sulfamoylmethyl)-2-(1H-tetrazol-5-yl)-4-(trifluoromethyl)biphenyl-3-sulfonamide], the figures for the half-inhibitory concentration (IC50) against VIM-1 (setting [10]), at NDM-1 (setting [5]) and on IMP-1 (setting [6]) were 4.29 nM, 4.95 nM and 3.02 nM, respectively. Also, in test [1] (setting [7]), the “Escherichia coli MITC95” value amounted to 6.25 µM. For the same compound, the “Serratia marcescens MITC95” value in test [2] (setting [8]) turned out to be 3.125 µM. Besides, the “Klebsiella pneumoniae MITC95” value in test [3] (setting [9]) was 25 µM.
Turning to `NS(=O)(=O)c1c(C(F)(F)F)ccc(-c2ccc(C(O)C3CCNCC3)cc2)c1-c1nnn[nH]1` (stereo not drawn) [Example 738, 4′-[hydroxy(piperidin-4-yl)methyl]-2-(1H-tetrazol-5-yl)-4-(trifluoromethyl)biphenyl-3-sulfonamide], the IC50 against VIM-1 (setting [10]) was 3.41 nM; at NDM-1 (setting [5]), 1.28 nM; on IMP-1 (setting [6]), 2.28 nM. In test [1] (setting [7]), the “Escherichia coli MITC95” value was found to be 3.125 µM. In test [2] (setting [8]), the “Serratia marcescens MITC95” value stood at 6.25 µM. Besides, the “Klebsiella pneumoniae MITC95” value in test [3] (setting [9]) stood at 50 µM.
As for `NS(=O)(=O)c1c(C(F)(F)F)ccc(-c2cccc(N3CCCC(O)C3)c2)c1-c1nnn[nH]1` (stereo not drawn) [Example 739, 3′-(3-hydroxypiperidin-1-yl)-2-(1H-tetrazol-5-yl)-4-(trifluoromethyl)biphenyl-3-sulfonamide], the figures for the IC50 at VIM-1 (setting [4]), on NDM-1 (setting [5]) and on IMP-1 (setting [6]) were 2.77 nM, 3.84 nM and 6.82 nM, respectively. Moreover, in test [1] (setting [7]), the “Escherichia coli MITC95” value is 25 µM. In addition, in test [2] (setting [8]), the “Serratia marcescens MITC95” value worked out at 25 µM. Besides, the “Klebsiella pneumoniae MITC95” value in test [3] (setting [9]) was >200 µM.
With `NS(=O)(=O)c1c(C(F)(F)F)ccc(-c2ccc(N3CCC(O)CC3)cc2)c1-c1nnn[nH]1` [Example 740, 4′-(4-hydroxypiperidin-1-yl)-2-(1H-tetrazol-5-yl)-4-(trifluoromethyl)biphenyl-3-sulfonamide], the values for the IC50 at VIM-1 (setting [4]), at NDM-1 (setting [5]) and on IMP-1 (setting [6]) were 1.15 nM, 0.229 nM and 0.456 nM, respectively. Moreover, in test [1] (setting [7]), the “Escherichia coli MITC95” value came out at 6.25 µM. For the same compound, the “Serratia marcescens MITC95” value in test [2] (setting [8]) turned out to be 6.25 µM. Moreover, the “Klebsiella pneumoniae MITC95” value in test [3] (setting [9]) was found to be 50 µM.
As for `NS(=O)(=O)c1c(C(F)(F)F)ccc(-c2cccc(N3CCC(O)CC3)c2)c1-c1nnn[nH]1` [Example 741, 3′-(4-hydroxypiperidin-1-yl)-2-(1H-tetrazol-5-yl)-4-(trifluoromethyl)biphenyl-3-sulfonamide], the IC50 on VIM-1 (setting [4]) was determined as 2.74 nM; at NDM-1 (setting [5]) it was 4.65 nM; at IMP-1 (setting [6]), 6.12 nM. In addition, in test [1] (setting [7]), the “Escherichia coli MITC95” value came to 25 µM. Besides, the “Serratia marcescens MITC95” value in test [2] (setting [8]) was 25 µM. Also, the “Klebsiella pneumoniae MITC95” value in test [3] (setting [9]) is >200 µM.
As to `NS(=O)(=O)c1c(C(F)(F)F)ccc(-c2ccc(S(=O)(=O)CCO)cc2)c1-c1nnn[nH]1` [Example 742, 4′-[(2-hydroxyethyl)sulfonyl]-2-(1H-tetrazol-5-yl)-4-(trifluoromethyl)biphenyl-3-sulfonamide], the results for the half-maximal inhibitory concentration (IC50) on VIM-1 (setting [4]), at NDM-1 (setting [5]) and on IMP-1 (setting [6]) were 0.657 nM, 2.01 nM and 1.84 nM, respectively. For the same compound, in test [1] (setting [7]), the “Escherichia coli MITC95” value amounted to 12.5 µM. Further, in test [2] (setting [8]), the “Serratia marcescens MITC95” value was 12.5 µM. The “Klebsiella pneumoniae MITC95” value in test [3] (setting [9]) turned out to be 25 µM.
Take `Nc1nc2c(F)cc(-c3ccc(C(F)(F)F)c(S(N)(=O)=O)c3-c3nnn[nH]3)cc2s1` [Example 743, 3-(2-amino-4-fluoro-1,3-benzothiazol-6-yl)-2-(1H-tetrazol-5-yl)-6-(trifluoromethyl)benzenesulfon-amide]: the 50% inhibitory concentration (IC50) at VIM-1 (setting [11]) came to 0.147 nM; at NDM-1 (setting [12]), 0.409 nM; on IMP-1 (setting [12]), 0.901 nM. In test [1] (setting [13]), the “Escherichia coli MITC95” value was determined as 3.125 µM. Further, in test [2] (setting [14]), the “Serratia marcescens MITC95” value is 6.25 µM. Further, the “Klebsiella pneumoniae MITC95” value in test [3] (setting [15]) was found to be 6.25 µM.
As for `NS(=O)(=O)c1c(C(F)(F)F)ccc(-c2ccc(C3CCNCC3)nc2)c1-c1nnn[nH]1` [Example 744, 3-(6-piperidin-4-ylpyridin-3-yl)-2-(1H-tetrazol-5-yl)-6-(trifluoromethyl)benzenesulfon-amide], the values for the IC50 at VIM-1 (setting [16]), at NDM-1 (setting [12]) and on IMP-1 (setting [12]) were 0.907 nM, 16.3 nM and 18.1 nM, respectively. The “Escherichia coli MITC95” value in test [1] (setting [13]) is 6.25 µM. The “Serratia marcescens MITC95” value in test [2] (setting [14]) was found to be 12.5 µM. Also, the “Klebsiella pneumoniae MITC95” value in test [3] (setting [15]) was determined as 12.5 µM.
For `Nc1ccc2cc(-c3ccc(C(F)(F)F)c(S(N)(=O)=O)c3-c3nnn[nH]3)ccc2n1` [Example 745, 3-(2-aminoquinolin-6-yl)-2-(1H-tetrazol-5-yl)-6-(trifluoromethyl)benzenesulfon-amide], the IC50 came out at 0.175 nM at VIM-1 (setting [11]), 1.05 nM on NDM-1 (setting [12]) and 1.5 nM at IMP-1 (setting [12]). Besides, in test [1] (setting [13]), the “Escherichia coli MITC95” value stood at 0.7813 µM. Further, the “Serratia marcescens MITC95” value in test [2] (setting [14]) came to 3.125 µM. For the same compound, the “Klebsiella pneumoniae MITC95” value in test [3] (setting [15]) was determined as 3.125 µM.
On to `NS(=O)(=O)c1c(C(F)(F)F)ccc(-c2ccc3c(c2)CNC3=O)c1-c1nnn[nH]1` [Example 746, 3-(1-oxo-2,3-dihydro-1H-isoindol-5-yl)-2-(1H-tetrazol-5-yl)-6-(trifluoromethyl)benzenesulfon-amide], for which the IC50 on VIM-1 (setting [11]) turned out to be 0.234 nM; at NDM-1 (setting [12]) it was 2.27 nM; on IMP-1 (setting [12]), 2.59 nM. Besides, the “Escherichia coli MITC95” value in test [1] (setting [13]) came to 6.25 µM. For the same compound, in test [2] (setting [14]), the “Serratia marcescens MITC95” value was 6.25 µM. The “Klebsiella pneumoniae MITC95” value in test [3] (setting [15]) is 6.25 µM.
Take `Cc1ccncc1-c1ccc(C(F)(F)F)c(S(N)(=O)=O)c1-c1nnn[nH]1` [Example 747, 3-(4-methylpyridin-3-yl)-2-(1H-tetrazol-5-yl)-6-(trifluoromethyl)benzenesulfon-amide]: the IC50 was 0.866 nM at VIM-1 (setting [16]), 5.72 nM at NDM-1 (setting [12]) and 11.2 nM at IMP-1 (setting [12]). Moreover, in test [1] (setting [13]), the “Escherichia coli MITC95” value is 6.25 µM. In addition, the “Serratia marcescens MITC95” value in test [2] (setting [14]) stood at 25 µM. For the same compound, the “Klebsiella pneumoniae MITC95” value in test [3] (setting [15]) stood at 12.5 µM.

The values above are taken from US9708336B2, “Metallo-beta-lactamase inhibitors” (priority 2014, dated 2017).
